This test deals with APJ receptor (Homo sapiens (Human), UniProt P35414). In words: [35S]GTPγS binding assay on membranes from CHO cells stably expressing human APJ receptor. In kind it is biochemical. Particulars: membranes of CHO cells stably expressing human APJ receptor, means of several independent experiments, read-out: Activity hAPJ SPA EC50 IP. The procedure, abridged:
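EC50 values were obtained by non-linear regression of [35S]GTPγS (0.2 nM) binding after 90 min at RT, with nonspecific binding defined by 100 μM GTPγS. Reactions used human APJ–expressing CHO cell membranes on WGA PS beads in HEPES pH 7.5 buffer with 5 mM MgCl2, 200 mM NaCl, 3 μM GDP and 0.1% BSA.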
On the technique in general: GTPγS resists hydrolysis and so accumulates on activated G proteins.

Chain of APJ receptor (P35414 whole entry): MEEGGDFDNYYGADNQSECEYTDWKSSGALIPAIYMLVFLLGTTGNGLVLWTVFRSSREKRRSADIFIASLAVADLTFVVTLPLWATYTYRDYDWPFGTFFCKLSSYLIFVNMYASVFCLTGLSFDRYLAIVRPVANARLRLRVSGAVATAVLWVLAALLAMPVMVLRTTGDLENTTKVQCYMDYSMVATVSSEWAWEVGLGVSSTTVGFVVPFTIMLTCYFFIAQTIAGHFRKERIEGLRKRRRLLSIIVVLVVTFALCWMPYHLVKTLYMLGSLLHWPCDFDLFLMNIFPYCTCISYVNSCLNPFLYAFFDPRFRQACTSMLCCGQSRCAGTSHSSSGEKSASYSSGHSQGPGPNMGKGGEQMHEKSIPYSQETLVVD

Regarding `COc1cccc(OC)c1-n1c(NS(=O)(=O)[C@H](C)[C@H](O)c2oc(C)nc2C)nnc1-c1ccc(C)o1` (racemic) [Example 82.0], the EC50 turned out to be 18 nM.

With `CC[C@H](Cc1ncc(F)cn1)S(=O)(=O)Nc1nnc(-c2ccc(C)o2)n1-c1c(OC)cccc1OC` [Example 128.0, (R)-N-(4-(2,6-dimethoxyphenyl)-5-(5-methylfuran-2-yl)-4H-1,2,4-triazol-3-yl)-1-(5-fluoropyrimidin-2-yl)butane-2-sulfonamide and (R)-N-(4-(2,6-dimethoxyphenyl)-5-(5-methylfuran-2-yl)-4H-1,2,4-triazol-3-yl)-1-(5-fluoropyrimidin-2-yl)butane-2-sulfonamide], the EC50 is 1.1 nM.

For the compound `COc1cccc(OC)c1-n1c(NS(=O)(=O)[C@@H](C)[C@H](OC)c2cn3ccccc3n2)nnc1-c1ccc(C)o1` (single isomer, unassigned) [Example 263.0, (1R,2S)—N-(4-(2,6-Dimethoxyphenyl)-5-(5-methyl-2-furanyl)-4H-1,2,4-triazol-3-yl)-1-imidazo[1,2-a]pyridin-2-yl-1-methoxy-2-propanesulfonamide or (1S,2R)—N-(4-(2,6-dimethoxyphenyl)-5-(5-methyl-2-furanyl)-4H-1,2,4-triazol-3-yl)-1-imidazo[1,2-a]pyridin-2-yl-1-methoxy-2-propanesulfonamide], the EC50 is 0.086 nM.

Turning to `COc1cccc(OC)c1-n1c(NS(=O)(=O)[C@H]2C[C@@H](O)CN(c3ncc(Cl)cn3)C2)nnc1-c1ccc(C)o1` (racemic) [Example 328.0, (3S,5R)-1-(5-Chloro-2-pyrimidinyl)-N-(4-(2,6-dimethoxyphenyl)-5-(5-methyl-2-furanyl)-4H-1,2,4-triazol-3-yl)-5-hydroxy-3-piperidinesulfonamide and (3R,5S)-1-(5-chloro-2-pyrimidinyl)-N-(4-(2,6-dimethoxyphenyl)-5-(5-methyl-2-furanyl)-4H-1,2,4-triazol-3-yl)-5-hydroxy-3-piperidinesulfonamide], the EC50 is 0.3 nM.

Turning to `C[C@@H](Cc1ncc(F)cn1)S(=O)(=O)Nc1nnc(-c2ccco2)n1-c1cccc2ccccc12` (mixture of isomers) [Example 314.0, (2R)-1-(5-Fluoro-2-pyrimidinyl)-N-(5-(2-furanyl)-4-(1-naphthalenyl)-4H-1,2,4-triazol-3-yl)-2-propanesulfonamide and (2S)-1-(5-fluoro-2-pyrimidinyl)-N-(5-(2-furanyl)-4-(1-naphthalenyl)-4H-1,2,4-triazol-3-yl)-2-propanesulfonamide], the EC50 stood at 230 nM.

For `COc1cccc(OC)c1-n1c(NS(=O)(=O)C[C@@H](C)c2ncc(F)cn2)nnc1-c1ccco1` (mixture of isomers) [Example 129.0, (S)-N-(4-(2,6-dimethoxyphenyl)-5-(furan-2-yl)-4H-1,2,4-triazol-3-yl)-2-(5-fluoropyrimidin-2-yl)propane-1-sulfonamide and (R)-N-(4-(2,6-dimethoxyphenyl)-5-(furan-2-yl)-4H-1,2,4-triazol-3-yl)-2-(5-fluoropyrimidin-2-yl)propane-1-sulfonamide], the concentration giving a half-maximal response (EC50) was 3.3 nM.

`COc1cccc(OC)c1-n1c(NS(=O)(=O)[C@H](C)Cc2ccc(F)cn2)nnc1-c1ccco1` (single isomer, unassigned) [Example 25.0, (2R)—N-(4-(2,6-dimethoxyphenyl)-5-(2-furanyl)-4H-1,2,4-triazol-3-yl)-1-(5-fluoro-2-pyridinyl)-2-propanesulfonamide or (2S)—N-(4-(2,6-dimethoxyphenyl)-5-(2-furanyl)-4H-1,2,4-triazol-3-yl)-1-(5-fluoro-2-pyridinyl)-2-propanesulfonamide]: the 50% effective concentration (EC50) amounted to 0.37 nM.

For the compound `COc1cccc(OC)c1-n1c(NS(=O)(=O)[C@@H]2COCC[C@@H]2O)nnc1-c1ccc(C)o1` (single isomer, unassigned) [Example 405.0], the EC50 was 64 nM.

In the case of `COc1cccc(OC)c1-n1c(NS(=O)(=O)[C@H](C)[C@@H](OC)c2cn3ccccc3n2)nnc1-c1ccc(C)o1` (racemic) [Example 264.0, (1R,2S)—N-(4-(2,6-Dimethoxyphenyl)-5-(5-methyl-2-furanyl)-4H-1,2,4-triazol-3-yl)-1-imidazo[1,2-a]pyridin-2-yl-1-methoxy-2-propanesulfonamide and (1S,2R)—N-(4-(2,6-dimethoxyphenyl)-5-(5-methyl-2-furanyl)-4H-1,2,4-triazol-3-yl)-1-imidazo[1,2-a]pyridin-2-yl-1-methoxy-2-propanesulfonamide], the concentration giving a half-maximal response (EC50) came out at 0.167 nM.

For the compound `COc1cccc(OC)c1-n1c(NS(=O)(=O)CCc2ncc(Cl)cc2-c2cccnc2)nnc1-c1ccco1` [Example 221.0, 2-(5-Chloro-3,3′-bipyridin-2-yl)-N-(4-(2,6-dimethoxyphenyl)-5-(2-furanyl)-4H-1,2,4-triazol-3-yl)ethanesulfonamide], the 50% effective concentration (EC50) was found to be 0.3 nM.

As to `COc1cccc(OC)c1-n1c(NS(=O)(=O)C[C@@](C)(O)c2ncc(F)cn2)nnc1-c1ccc(C)o1` (single isomer, unassigned) [Example 249.0], the EC50 came to 2.5 nM.

Take `COc1cccc(OC)c1-n1c(NS(=O)(=O)[C@@H](C)[C@H](O)c2cccc3ccnn23)nnc1-c1ccc(C)o1` (single isomer, unassigned) [Example 296.0, (1R,2S)—N-(4-(2,6-Dimethoxyphenyl)-5-(5-methyl-2-furanyl)-4H-1,2,4-triazol-3-yl)-1-hydroxy-1-pyrazolo[1,5-a]pyridin-7-yl-2-propanesulfonamide or (1S,2R)—N-(4-(2,6-dimethoxyphenyl)-5-(5-methyl-2-furanyl)-4H-1,2,4-triazol-3-yl)-1-hydroxy-1-pyrazolo[1,5-a]pyridin-7-yl-2-propanesulfonamide]: the EC50 was 6.8 nM.

Take `COc1cccc(OC)c1-n1c(NS(=O)(=O)[C@@H](C)Cc2cnc(C)cn2)nnc1-c1ccc(C)o1` (single isomer, unassigned) [Example 38.0, (2S)—N-(4-(2,6-dimethoxyphenyl)-5-(5-methyl-2-furanyl)-4H-1,2,4-triazol-3-yl)-1-(5-methyl-2-pyrazinyl)-2-propanesulfonamide or (2R)—N-(4-(2,6-dimethoxyphenyl)-5-(5-methyl-2-furanyl)-4H-1,2,4-triazol-3-yl)-1-(5-methyl-2-pyrazinyl)-2-propanesulfonamide]: the half-maximal effective concentration (EC50) is 3.8 nM.

For the compound `COc1cccc(OC)c1-n1c(NS(=O)(=O)[C@@H](C)[C@@H](O)c2ccc(C#N)cn2)nnc1-c1ccc(C)o1` (single isomer, unassigned) [Example 10.0, (1S,2S)-1-(5-cyano-2-pyridinyl)-N-(4-(2,6-dimethoxyphenyl)-5-(5-methyl-2-furanyl)-4H-1,2,4-triazol-3-yl)-1-hydroxy-2-propanesulfonamide or (1R,2R)-1-(5-cyano-2-pyridinyl)-N-(4-(2,6-dimethoxyphenyl)-5-(5-methyl-2-furanyl)-4H-1,2,4-triazol-3-yl)-1-hydroxy-2-propanesulfonamide], the EC50 came to 0.11 nM.

As for `COc1cccc(OC)c1-n1c(NS(=O)(=O)[C@H](C)[C@@H](O)c2ncn3ccccc23)nnc1-c1ccc(C)o1` (single isomer, unassigned) [Example 270.0, (1R,2S)—N-(4-(2,6-Dimethoxyphenyl)-5-(5-methyl-2-furanyl)-4H-1,2,4-triazol-3-yl)-1-hydroxy-1-imidazo[1,5-a]pyridin-1-yl-2-propanesulfonamide or (1S,2R)—N-(4-(2,6-dimethoxyphenyl)-5-(5-methyl-2-furanyl)-4H-1,2,4-triazol-3-yl)-1-hydroxy-1-imidazo[1,5-a]pyridin-1-yl-2-propanesulfonamide], the EC50 is 0.56 nM.

For the compound `COc1ncnc(OC)c1-n1c(NS(=O)(=O)[C@@H](C)[C@H](C)c2ncc(F)cn2)nnc1-c1ccc(Br)o1` [Example 394.0, (2S,3R)-N-(5-(5-bromo-2-furanyl)-4-(4,6-dimethoxy-5-pyrimidinyl)-4H-1,2,4-triazol-3-yl)-3-(5-fluoro-2-pyrimidinyl)-2-butanesulfonamide], the EC50 turned out to be 0.31 nM.

Consider `COc1cccc(OC)c1-n1c(NS(=O)(=O)[C@@H](C)[C@H](OC)c2ncc(F)cn2)nnc1-c1ccc(C)o1` (single isomer, unassigned) [Example 116.0, (1R,2S)-N-(4-(2,6-dimethoxyphenyl)-5-(5-methylfuran-2-yl)-4H-1,2,4-triazol-3-yl)-1-(5-fluoropyrimidin-2-yl)-1-methoxypropane-2-sulfonamide or (1S,2R)-N-(4-(2,6-dimethoxyphenyl)-5-(5-methylfuran-2-yl)-4H-1,2,4-triazol-3-yl)-1-(5-fluoropyrimidin-2-yl)-1-methoxypropane-2-sulfonamide], for which the concentration for a half-maximal effect (EC50) came out at 0.056 nM.

Consider `COc1cccc(OC)c1-n1c(NS(=O)(=O)CCc2ncc(Cl)cc2C2=CCNCC2)nnc1-c1ccco1` [Example 220.0, 2-(5-Chloro-1′,2′,3′,6′-tetrahydro-3,4′-bipyridin-2-yl)-N-(4-(2,6-dimethoxyphenyl)-5-(2-furanyl)-4H-1,2,4-triazol-3-yl)ethanesulfonamide], for which the EC50 was determined as 0.27 nM.

`COc1cccc(OC)c1-n1c(NS(=O)(=O)[C@@H](C)Cc2ccc(Cl)cn2)nnc1-c1ccco1` (racemic) [Example 14.0, (2R)-1-(5-chloro-2-pyridinyl)-N-(4-(2,6-dimethoxyphenyl)-5-(2-furanyl)-4H-1,2,4-triazol-3-yl)-2-propanesulfonamide and (2S)-1-(5-chloro-2-pyridinyl)-N-(4-(2,6-dimethoxyphenyl)-5-(2-furanyl)-4H-1,2,4-triazol-3-yl)-2-propanesulfonamide]: the EC50 was found to be 0.2 nM.

Broadly, the EC50 is the concentration that produces a half-maximal response.

The values above are taken from patent publication US10736883B2, “Triazole furan compounds as agonists of the APJ receptor” (AMGEN INC., priority 2016, dated 2020).
